From publication PMC11172314, “Towards Enhanced Tunability of Aqueous Biphasic Systems: Furthering the Grasp of Fluorinated Ionic Liquids in the Purification of Proteins” (International Journal of Molecular Sciences, 2024)
Read-outs that look alike come from different tables or passages of the source.

How the values were obtained:
lysozyme (Lys) [1] = target: T1, lysozyme (Lys) (Gallus gallus, UniProt P00698); experiment: DSC thermal stability (Tm, ΔH) of lysozyme in water, component solutions and ABS phases; parameters: species or system chicken; conditions: for Lys Tm / Lys ∆H: 1.0 mg/mL Lys
T1 construct: Lyophilized lysozyme from chicken egg white, ≥90% purity; purchased Millipore (Darmstadt, Germany); host or cells: chicken egg white (natural source)
Source text: Differential scanning calorimetry (DSC) measurements (Section 3) were used to determine the melting temperature ( Tm ) and enthalpy ( Δ H) of lysozyme, at which both the folded and unfolded states coexist at equilibrium. DSC outputs, thermal transitions at the nanoscale level, allow to analyze alterations on proteins structure and stability, providing sharp perceptions of the factors affecting stability, as well as of the folding and unfolding processes. […] (DSC curve depicted in Figure S16 of Supplementary Materials).
FIL (BP#8, BP#10, BP#11, and BP#12). […] For the system based on [C4C1Im][CF3SO3]
The thermal stability of lysozyme was analyzed in water, ABS phase-forming compounds aqueous solutions, and partition ABS phases. […] Partition lysozyme on each phase from the prepared biphasic points as well as recovered protein from the FIL-rich phase were also addressed for a selection of studied systems listed in Table 1. We acquired thermograms using a TA^TM Nano DSC from TA Instruments. All scans were conducted in a 300 μ L capillary cell through a temperature ramp from 20 to 90 °C at a heating rate of 1 °C/min and 3 atm pressure. All samples were degassed for 7 min at 20 °C, with the exception of FIL-containing samples owing to their surfactant properties. After subtracting the polynomial fit baselines, raw thermogram curve data were fitted with the TwoStateScaled model using NanoAnalyze TA Instruments software, version 3.12, to determine the protein thermal transition temperatures in each sample. During nanoDSC scans, Δ H and Δ S were obtained and utilized to determine Δ G ( Δ G = Δ H − T Δ S).

[2] = cited from earlier work
lysozyme (Lys) [3] = target: T1, lysozyme (Lys); parameters: method as in PMID 28478279, PMID 17406547; conditions: cited from earlier work
lysozyme (Lys) [4] = target: T1, lysozyme (Lys); experiment: Far-UV CD secondary structure content of lysozyme (K2D deconvolution); parameters: species or system chicken; Lys α-helix content / Lys β-sheet content / Lys random coil content / α-helix content / β-sheet content / Random coil content: unit not given here; conditions: 25 °C; for Lys random coil content / Lys α-helix content / Lys β-sheet content: 1.0 mg/ml Lys
Protocol: Circular dichroism (CD) spectroscopy is broadly applied to assess the secondary structure of proteins because different structural elements have characteristic CD spectra. […] For [C4C1Im][CF3SO3] (mere fluoro-containing IL), the structural content was estimated for the concentration range (0.1–200 mM). […] FIL and [ N1112(OH) ][H2PO4] […] No substantial protein structural modification upon the ABS phase-forming component addition was verified.
Circular dichroism (CD) spectra were collected in a 10 mm quartz cuvette and a Chirascan spectropolarimeter (Applied Photophysics, Leatherhead, UK) at room temperature. All CD spectra were recorded in far-UV 190 to 260 nm at scan rates of 50 nm/min, 4 accumulations, and a response time of 3 s. Each CD experiment involved the acquisition and combination of two distinct duplicates. […] Spectral deconvolution was carried out with Dichroweb using the K2D algorithm.

FITC-Lys (lysozyme) = target: T2, FITC-Lys (lysozyme) (Gallus gallus, UniProt P00698); experiment: Microscale thermophoresis (MST) binding of ABS phase-forming components to FITC-labeled lysozyme; parameters: species or system chicken; conditions: FITC-Lys 0.41 μM, 25 °C
T2 construct: Lyophilized lysozyme from chicken egg white, ≥90% purity; purchased Millipore (Darmstadt, Germany); host or cells: chicken egg white (natural source)
Protocol: Usually, in the labeling process, the position of dye is statistically distributed, and one amine per protein is labeled. […] The four ABS phase-forming components, [ N1112(OH) ][H2PO4] […] (FILs), and [C4C1Im][CF3SO3] […] In each run of MST, a maximum concentration of ligand was selected and consecutively diluted in sixteen capillaries.
Binding studies were conducted through microscale thermophoresis measurements of dye-labeled lysozyme. […] MST tests were conducted in a monolith NT.115 (blue/red) in accordance with the Nano Temper Technologies methodology. Medium MST power and 20% LED power (nano-blue) were set as the instrument’s default settings. For each and every MST measurement, PBS buffer was used. […] For each ligand, a series of 16 1:1 dilutions was prepared using the same buffer, varying the starting ligand concentration from 15 to 400 mM. MST traces were recorded using the standard parameters: 5 s MST power off, 30 s MST power on, and 5 s MST power off. Three independently conducted pipetted experiments’ data were examined using NanoTemper Technologies’ MO. Affinity Analysis program, version 2.3.

lysozyme (Lys) [5] = target: T1, lysozyme (Lys); experiment: Intrinsic (tryptophan) fluorescence of lysozyme; parameters: species or system chicken; conditions: 0.2 mg/mL Lys, excitation 295 nm, component 0.1–800 mM, 25 °C
Source text: (FIL), [C4C1Im][CF3SO3] (mere fluoro-containing IL), and [ N1112(OH) ][H2PO4] (globular protein stabilizer). […] Even though large changes in protein conformation can modify the intensity of tyrosine and phenylalanine fluorescence signals, their low extinction coefficients and quantum yields, as well as their relative lower sensitivity to environmental changes, make them a less appealing candidate. Tryptophan is frequently found concealed in the hydrophobic core of proteins due to its aromatic nature. […] The tryptophan release energy is particularly sensitive to the polarity (and dynamics) of the environment because the excited-state dipole moment is quite large. Reactions to denaturation, substrate binding, subunit association, and conformational transitions create variations in the tryptophan emission spectra. The spectrum shift generally known as blue shift, a shift of the maximum emission towards smaller wavelengths, denotes that the aromatic residue is buried in the native structure of the protein [67]. […] Furthermore, the amount of exposure of the fluorophores to the solvent is associated with the increase or decrease in the intensity of the emission spectrum. […] [C4C1Im][CF3SO3] and [ N1112(OH) ][H2PO4] […] Variations in lysozyme spectra are caused by ligand-induced changes in the microenvironment of tryptophan residues, either by shifting the maximum peak wavelength (blue or red shift) or by altering peak intensities. These changes can be used as a measure of the effect of the ABS phase-forming components on protein folding and unfolding.
Intrinsic fluorescence spectroscopy measurements of lysozyme’s tryptophan residues were carried out on a Spex Horiba Jobyin Yvon spectrofluorometer (HORIBA Jobin Yvon, France) using a 10 mm path length quartz cuvette. […] The excitation and emission slit widths of 2 nm were used for all the measurements. Maximum fluorescence values were attained as the average of three measurements.

[6] = parameters: method as in earlier work; conditions: aqueous solution, 25 °C, conductometry; ref 21 (supplement ref 1); cited from earlier work
[7] = max. conc. (first capillary) in monomer range: below 1st CAC for FILs, ]0, 100] mM for non-aggregating ligands

T1 sequence (P00698 19-147): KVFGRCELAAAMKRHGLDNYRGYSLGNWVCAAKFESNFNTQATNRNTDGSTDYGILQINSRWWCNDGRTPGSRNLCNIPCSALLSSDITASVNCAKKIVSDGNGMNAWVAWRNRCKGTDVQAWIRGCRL
T2 sequence (P00698 19-147): as above

Compound	Lys Tm (lysozyme (Lys) [1]; 0.1 mM component in water)	Lys ∆H (lysozyme (Lys) [1]; 0.1 mM component in water)	Lys Tm (lysozyme (Lys) [1]; 1 mM component in water)	Lys ∆H (lysozyme (Lys) [1]; 1 mM component in water)	Lys Tm (lysozyme (Lys) [1]; 5 mM component in water)	Lys ∆H (lysozyme (Lys) [1]; 5 mM component in water)	Lys Tm (lysozyme (Lys) [1]; 10 mM component in water)	Lys ∆H (lysozyme (Lys) [1]; 10 mM component in water)	Kd (FITC-Lys (lysozyme); [7])	Lys random coil content (lysozyme (Lys) [4]; 0.1 mM component)	Lys α-helix content (lysozyme (Lys) [4]; 0.1 mM component)	Lys β-sheet content (lysozyme (Lys) [4]; 0.1 mM component)	Lys random coil content (lysozyme (Lys) [4]; 1 mM component)	Lys α-helix content (lysozyme (Lys) [4]; 1 mM component)	Lys β-sheet content (lysozyme (Lys) [4]; 1 mM component)	Lys random coil content (lysozyme (Lys) [4]; 5 mM component)	Lys α-helix content (lysozyme (Lys) [4]; 5 mM component)	Lys β-sheet content (lysozyme (Lys) [4]; 5 mM component)	Lys random coil content (lysozyme (Lys) [4]; 25 mM component)	Lys α-helix content (lysozyme (Lys) [4]; 25 mM component)	other results
Lys: lysozyme from chicken egg white (muramidase, EC 3.2.1.17), 14 kDa globular protein used as protein model																					Tm (lysozyme (Lys) [1]; 0.5 mg/ml Lys in water): 69.26±0.031 °C; ∆H (lysozyme (Lys) [1]; 1.0 mg/mL Lys in water): 493.6 kJ/mol; Tm (lysozyme (Lys) [1]; 3.0 mg/ml Lys in water): 73.85±0.005 °C; isoelectric point [2]: around 11.0; β-strand, analysis based on various methods (lysozyme (Lys) [3]): ≈ 19%; α-helix, secondary structure prediction (lysozyme (Lys) [4]; 1.0 mg/mL Lys in water): 29%; β-strand, secondary structure prediction (lysozyme (Lys) [4]; 1.0 mg/mL Lys in water): 14%; Random coil content (lysozyme (Lys) [4]; 1.0 mg/ml Lys in water (0 mM)): 0.57; α-helix content (lysozyme (Lys) [4]; 1.0 mg/ml Lys in water (0 mM)): 0.29; β-sheet content (lysozyme (Lys) [4]; 1.0 mg/ml Lys in water (0 mM)): 0.14
C[N+](C)(C)CCO.C[N+](C)(C)CCO.O=P([O-])(O)O.O=P([O-])(O)O [[N1112(OH) ][H2PO4], Choline ((2-hydroxyethyl)trimethylammonium) dihydrogen phosphate]	77.10 °C	564.1 kJ/mol	77.11 °C	554.2 kJ/mol	76.70 °C	597.6 kJ/mol	77.06 °C	576.4 kJ/mol	no binding detected	0.56	0.29	0.15	0.58	0.28	0.14	0.56	0.25	0.18	0.57	0.24	Lys fluorescence emission intensity with increasing component concentration (lysozyme (Lys) [5]): reduction in fluorescence emission intensity; Lys maximum emission wavelength with increasing component concentration (lysozyme (Lys) [5]): remains constant; Lys β-sheet content (lysozyme (Lys) [4]; 25 mM component): 0.2
O=S(=O)(O)C(F)(F)C(F)(F)C(F)(F)C(F)(F)F [[N1112(OH) ][C4F9SO3]]																					Kd (FITC-Lys (lysozyme); max. conc. (first capillary) in 1st CAC range ([14.4, 34.48[ or [16.02, 35.17[ mM), read-out: Kd): 6.05 ± 1.67 mM; Kd (FITC-Lys (lysozyme); max. conc. (first capillary) in 2nd CAC range ([34.48, 76.54[ or [35.17, 185.65[ mM), read-out: Kd): 6.25 ± 1.47 mM
C[N+](C)(C)CCO.O=S(=O)([O-])C(F)(F)C(F)(F)C(F)(F)C(F)(F)F [[N1112(OH) ][C4F9SO3]]	77.15 °C	570.4 kJ/mol	76.65 °C	534.5 kJ/mol	75.19 °C	514.5 kJ/mol	74.28 °C	560.8 kJ/mol	no binding detected	0.57	0.28	0.15	0.58	0.28	0.14	0.56	0.25	0.19	0.57	0.24	Lys Tm (lysozyme (Lys) [1]; 25 mM component in water, several transitions listed singly, listed as [N1112(OH)][C4F9SO3]): 83.98 °C; 1st CAC [6]: 16.02 mM; 2nd CAC [6]: 35.17 mM; 3rd CAC [6]: 185.65 mM; Lys β-sheet content (lysozyme (Lys) [4]; 25 mM component): 0.2
